Assay results from ChEMBL document CHEMBL1201862, “PubChem BioAssay data set” (2004).
The source made the active and inactive calls.

Experiments:
[1] = Counterscreen for activators of the function of SWI/SNF related, matrix associated, actin dependent regulator of chromatin, subfamily a, member 2 (SMARCA2, BRM): Luminescence-based cell-based high throughput dose response assay to identify non-selective compounds using the VP16 reporter assay.; type: functional
[2] = biological target: SWI/SNF-related matrix-associated actin-dependent regulator of chromatin subfamily A member 2 (Homo sapiens, UniProt P51531); experiment: Luminescence-based cell-based high throughput dose response assay to identify activators of the function of SWI/SNF related, matrix associated, actin dependent regulator of chromatin, subfamily a, member 2 (SMARCA2, BRM).; type: functional
[3] = cells; type: functional
[4] = AlphaScreen signal interference compounds, dose response, artefact control for ARNT-TACC3 interaction inhibitor project, biochemical, luminescence, cherry-pick (AID 651705); type: functional;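 further: AlphaScreen bead proximity signal that flags compounds interfering with the detection technology; potency reflects signal decrease which marks the compound as an assay artifact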
[5] = biological target: T1, Interleukin-8 (Homo sapiens, UniProt P10145); experiment: Dose Response confirmation of uHTS small molecule hits for cystic fibrosis induced NFkb Inhibitors in a PAF-induced IL8 counterscreen.; type: functional; conditions: read-out: IC50_Mean
T1 sequence (P10145 whole entry): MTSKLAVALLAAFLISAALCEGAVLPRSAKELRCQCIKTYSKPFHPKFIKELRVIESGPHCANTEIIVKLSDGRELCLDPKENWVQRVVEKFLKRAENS

[6] = biological target: 5-hydroxytryptamine receptor 2A (Mus musculus, UniProt P35363); type: functional, cell-based;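 further: CHO-K1 cells with tagged receptor and beta-arrestin; agonist potency measured as compound-induced activation of the receptor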
[7] = biological target: Mu-type opioid receptor (Homo sapiens, UniProt P35372); type: functional, cell-based;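 further: U2OS cells with beta-arrestin recruitment to OPRM1 by beta-gal complementation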
[8] = biological target: T2, Adenosylmethionine-8-amino-7-oxononanoate aminotransferase (Mycobacterium tuberculosis, UniProt P9WQ81); experiment: Mycobacterium tuberculosis BioA enzyme inhibitor Measured in Biochemical System Using Plate Reader - 2163-02_Inhibitor_Dose_CherryPick_Activity.; type: functional, Mycobacterium tuberculosis UT205
T2 sequence (P9WQ81 whole entry): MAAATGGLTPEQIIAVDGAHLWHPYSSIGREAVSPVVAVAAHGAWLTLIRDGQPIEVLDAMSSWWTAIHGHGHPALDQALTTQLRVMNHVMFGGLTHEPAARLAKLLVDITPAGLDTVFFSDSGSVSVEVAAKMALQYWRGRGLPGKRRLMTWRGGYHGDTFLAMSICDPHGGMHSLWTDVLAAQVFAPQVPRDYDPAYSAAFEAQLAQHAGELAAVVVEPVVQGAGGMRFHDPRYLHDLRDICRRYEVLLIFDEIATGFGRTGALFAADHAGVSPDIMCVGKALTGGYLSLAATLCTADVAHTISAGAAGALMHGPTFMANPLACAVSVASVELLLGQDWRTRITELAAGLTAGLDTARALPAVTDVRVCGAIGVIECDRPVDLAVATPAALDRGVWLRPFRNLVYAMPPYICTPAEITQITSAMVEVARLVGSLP

[9] = Shn3 3'UTR reporter inhibitors, dose response, cell-based, Clone20 osteoblasts, firefly luciferase, cherry-picked (AID 624132); type: functional;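 further: firefly luciferase luminescence from reporter carrying the Shn3 3'UTR in osteoblasts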
[10] = tested on: HEK293; experiment: inhibitors of LMP1-driven NF-kB reporter, dose response, cell-based, HEK293, luciferase, cherry-pick (AID 588343); type: functional; conditions: Homo sapiens
[11] = control 3'UTR Renilla luciferase suppression, dose response, counter-screen for Shn3 inhibitor project, cell-based, Clone20-Shn3RL, cherry-picked (AID 624133); type: functional
[12] = cytotoxicity in HPDE-C7 cells, cell-based, fluorescence, HTS (AID 430); type: functional; conditions: Homo sapiens
[13] = cytotoxicity in KRAS-transformed pancreatic duct cells, primary screen, cell-based, fluorescence, HTS (AID 431); type: functional; conditions: Homo sapiens;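 further: cell line used: HPDE-C7K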
[14] = HepG2 cell cytotoxicity, dose response, cytotoxicity control for Shn3 inhibitor project, CellTiter-Glo, cherry-picked (AID 624134); type: functional, cell-based
[15] = biological target: T3, Type-1 angiotensin II receptor (Homo sapiens, UniProt P30556); experiment: AT1 receptor antagonists, dose response, selectivity assay for APJ receptor antagonist project, cell-based, uHTS hits (AID 463214); type: functional;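 further: antagonist potency against angiotensin II stimulated AT1 response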
T3 sequence (P30556 whole entry): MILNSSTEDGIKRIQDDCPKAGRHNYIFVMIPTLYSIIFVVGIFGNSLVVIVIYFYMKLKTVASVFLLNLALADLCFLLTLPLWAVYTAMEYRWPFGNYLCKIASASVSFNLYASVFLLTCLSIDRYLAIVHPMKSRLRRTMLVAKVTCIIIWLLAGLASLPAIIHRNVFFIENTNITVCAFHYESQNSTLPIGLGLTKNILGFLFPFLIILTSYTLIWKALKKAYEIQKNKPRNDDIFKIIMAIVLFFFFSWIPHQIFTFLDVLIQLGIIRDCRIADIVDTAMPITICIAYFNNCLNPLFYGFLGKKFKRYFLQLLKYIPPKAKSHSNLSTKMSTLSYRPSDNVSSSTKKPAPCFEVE

[16] = biological target: Beta-galactosidase (Escherichia coli, UniProt Q8VNN2); experiment: PubChem AID 485352; type: functional
[17] = biological target: Cytochrome P450 3A4 (Homo sapiens, UniProt P08684);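 further: CYP3A4 tested as one member of a cytochrome P450 panel screen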
[18] = biological target: Cytochrome P450 2C9 (Homo sapiens, UniProt P11712)
[19] = biological target: T4, Mitochondrial peptide methionine sulfoxide reductase (Bos taurus, UniProt P54149); experiment: Absorbance-based biochemical high throughput dose response assay for activators of Methionine sulfoxide reductase A (MsrA).; type: functional
T4 sequence (P54149 whole entry): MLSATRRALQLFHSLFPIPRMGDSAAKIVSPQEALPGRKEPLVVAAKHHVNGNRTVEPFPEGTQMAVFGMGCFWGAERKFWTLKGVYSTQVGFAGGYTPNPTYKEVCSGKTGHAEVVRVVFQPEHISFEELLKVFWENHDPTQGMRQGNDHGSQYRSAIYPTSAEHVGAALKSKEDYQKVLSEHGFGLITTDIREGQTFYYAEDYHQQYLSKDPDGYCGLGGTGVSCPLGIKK

[20] = biological target: Cytochrome P450 2C19 (Homo sapiens, UniProt P33261); experiment: Cytochrome panel assay with activity outcomes. Panel member name: p450-cyp2c19 Compounds with AC50 equal or less than 10 uM are considered active; type: functional; conditions: read-out: AC50
[21] = biological target: DNA dC->dU-editing enzyme APOBEC-3G (Homo sapiens, UniProt Q9HC16); experiment: Dose Response confirmation of small molecule APOBEC3G DNA Deaminase Inhibitors via a fluorescence-based single-stranded DNA deaminase assay. [Related pubchem assays (depositor defined):AID493012, AID493028]; type: functional
[22] = biological target: Large T antigen (Simian virus 40, UniProt P03070); type: functional, Betapolyomavirus macacae;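 further: Confirmatory-stage PubChem screen for compounds that inhibit SV40 T antigen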
[23] = biological target: Glucose-6-phosphate 1-dehydrogenase (Homo sapiens, UniProt P11413); experiment: human G6PD enzyme inhibitors, dose response, selectivity assay for P. falciparum G6PD inhibitor project, biochemical, fluorescence (AID 504792); type: functional

Sequence of Cytochrome P450 2C19 (P33261 whole entry): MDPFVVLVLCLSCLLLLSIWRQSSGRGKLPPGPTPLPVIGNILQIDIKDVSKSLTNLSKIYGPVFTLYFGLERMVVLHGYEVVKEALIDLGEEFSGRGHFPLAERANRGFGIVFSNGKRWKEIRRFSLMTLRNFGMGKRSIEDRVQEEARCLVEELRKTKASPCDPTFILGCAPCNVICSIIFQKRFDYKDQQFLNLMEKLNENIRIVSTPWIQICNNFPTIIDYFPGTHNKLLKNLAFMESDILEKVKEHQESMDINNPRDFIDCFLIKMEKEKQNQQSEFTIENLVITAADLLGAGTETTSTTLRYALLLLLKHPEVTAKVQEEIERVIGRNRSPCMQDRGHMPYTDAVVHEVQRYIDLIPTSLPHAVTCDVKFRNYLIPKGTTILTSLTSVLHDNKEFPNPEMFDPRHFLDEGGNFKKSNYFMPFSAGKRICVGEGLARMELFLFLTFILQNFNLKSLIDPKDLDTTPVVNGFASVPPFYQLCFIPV
Sequence of Cytochrome P450 3A4 (P08684 whole entry): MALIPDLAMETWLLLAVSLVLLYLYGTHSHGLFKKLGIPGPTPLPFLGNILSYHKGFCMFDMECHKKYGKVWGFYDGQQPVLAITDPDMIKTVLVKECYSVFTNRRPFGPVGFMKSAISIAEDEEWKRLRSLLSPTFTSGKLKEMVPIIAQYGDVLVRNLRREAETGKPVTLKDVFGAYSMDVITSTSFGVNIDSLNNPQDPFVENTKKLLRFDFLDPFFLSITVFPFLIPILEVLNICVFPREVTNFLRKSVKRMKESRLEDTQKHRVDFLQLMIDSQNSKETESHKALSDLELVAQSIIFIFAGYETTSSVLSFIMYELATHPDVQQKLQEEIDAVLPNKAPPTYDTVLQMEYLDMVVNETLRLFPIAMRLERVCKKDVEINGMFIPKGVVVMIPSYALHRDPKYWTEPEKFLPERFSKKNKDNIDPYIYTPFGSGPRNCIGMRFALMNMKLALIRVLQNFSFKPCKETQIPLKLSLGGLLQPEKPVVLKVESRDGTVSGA
Sequence of SWI/SNF-related matrix-associated actin-dependent regulator of chromatin subfamily A member 2 (P51531 whole entry): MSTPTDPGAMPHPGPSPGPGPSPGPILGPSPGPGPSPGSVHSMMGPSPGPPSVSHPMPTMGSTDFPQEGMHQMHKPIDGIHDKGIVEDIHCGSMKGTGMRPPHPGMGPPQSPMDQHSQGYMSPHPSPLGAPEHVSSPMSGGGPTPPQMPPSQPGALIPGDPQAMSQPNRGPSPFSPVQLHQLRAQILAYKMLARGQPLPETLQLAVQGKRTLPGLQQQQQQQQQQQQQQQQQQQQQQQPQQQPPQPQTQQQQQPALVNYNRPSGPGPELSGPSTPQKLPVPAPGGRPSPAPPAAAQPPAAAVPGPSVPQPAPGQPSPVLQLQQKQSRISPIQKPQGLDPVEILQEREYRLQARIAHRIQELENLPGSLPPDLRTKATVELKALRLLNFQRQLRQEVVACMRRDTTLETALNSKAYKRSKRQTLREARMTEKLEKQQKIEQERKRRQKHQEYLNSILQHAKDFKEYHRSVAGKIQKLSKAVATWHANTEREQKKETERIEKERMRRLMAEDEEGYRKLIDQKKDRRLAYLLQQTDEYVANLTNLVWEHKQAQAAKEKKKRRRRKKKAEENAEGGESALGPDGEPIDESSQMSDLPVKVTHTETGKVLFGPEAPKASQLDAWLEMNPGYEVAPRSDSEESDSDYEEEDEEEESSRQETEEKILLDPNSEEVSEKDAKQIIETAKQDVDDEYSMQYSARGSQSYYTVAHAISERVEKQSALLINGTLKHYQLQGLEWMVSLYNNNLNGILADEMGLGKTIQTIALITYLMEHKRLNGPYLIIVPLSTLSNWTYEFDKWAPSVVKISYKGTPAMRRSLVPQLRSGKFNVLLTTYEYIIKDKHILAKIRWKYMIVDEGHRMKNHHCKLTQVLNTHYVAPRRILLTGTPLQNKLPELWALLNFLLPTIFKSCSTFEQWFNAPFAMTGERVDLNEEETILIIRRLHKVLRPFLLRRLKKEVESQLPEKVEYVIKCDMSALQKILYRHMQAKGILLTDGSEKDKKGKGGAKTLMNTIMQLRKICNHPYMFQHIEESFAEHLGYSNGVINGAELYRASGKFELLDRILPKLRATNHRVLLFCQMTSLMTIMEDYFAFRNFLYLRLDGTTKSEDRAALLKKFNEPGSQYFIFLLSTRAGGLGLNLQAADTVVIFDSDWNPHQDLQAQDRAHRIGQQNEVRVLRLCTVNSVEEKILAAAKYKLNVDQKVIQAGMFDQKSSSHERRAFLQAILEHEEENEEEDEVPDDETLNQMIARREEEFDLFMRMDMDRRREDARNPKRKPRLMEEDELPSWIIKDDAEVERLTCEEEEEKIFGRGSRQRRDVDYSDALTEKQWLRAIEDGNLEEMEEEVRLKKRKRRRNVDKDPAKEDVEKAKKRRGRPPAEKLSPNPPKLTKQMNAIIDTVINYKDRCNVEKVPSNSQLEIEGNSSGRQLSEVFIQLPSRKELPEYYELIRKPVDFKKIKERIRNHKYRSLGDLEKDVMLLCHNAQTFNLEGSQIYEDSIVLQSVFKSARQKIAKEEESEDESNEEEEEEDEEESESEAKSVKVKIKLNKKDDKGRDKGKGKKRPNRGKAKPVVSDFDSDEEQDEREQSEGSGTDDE
Sequence of Large T antigen (P03070 whole entry): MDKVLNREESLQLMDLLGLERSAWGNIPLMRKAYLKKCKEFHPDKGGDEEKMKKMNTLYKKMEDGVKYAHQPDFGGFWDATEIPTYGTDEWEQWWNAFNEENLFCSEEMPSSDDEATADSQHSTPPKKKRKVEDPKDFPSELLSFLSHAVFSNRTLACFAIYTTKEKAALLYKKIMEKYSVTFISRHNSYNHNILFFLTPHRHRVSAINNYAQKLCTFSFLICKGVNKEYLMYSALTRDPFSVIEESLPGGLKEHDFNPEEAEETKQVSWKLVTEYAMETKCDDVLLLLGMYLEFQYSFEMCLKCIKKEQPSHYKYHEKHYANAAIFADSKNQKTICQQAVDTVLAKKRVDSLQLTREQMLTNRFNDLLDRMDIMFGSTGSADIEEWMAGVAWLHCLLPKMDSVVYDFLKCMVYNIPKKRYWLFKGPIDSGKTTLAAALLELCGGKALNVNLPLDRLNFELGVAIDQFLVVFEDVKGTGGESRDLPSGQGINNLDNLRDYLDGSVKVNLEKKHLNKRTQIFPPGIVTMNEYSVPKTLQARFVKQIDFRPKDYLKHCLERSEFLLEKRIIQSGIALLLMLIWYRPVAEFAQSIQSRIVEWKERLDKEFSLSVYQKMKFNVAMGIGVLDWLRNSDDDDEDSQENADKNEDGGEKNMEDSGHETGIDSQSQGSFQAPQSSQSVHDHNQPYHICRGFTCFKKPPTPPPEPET
Sequence of DNA dC->dU-editing enzyme APOBEC-3G (Q9HC16 whole entry): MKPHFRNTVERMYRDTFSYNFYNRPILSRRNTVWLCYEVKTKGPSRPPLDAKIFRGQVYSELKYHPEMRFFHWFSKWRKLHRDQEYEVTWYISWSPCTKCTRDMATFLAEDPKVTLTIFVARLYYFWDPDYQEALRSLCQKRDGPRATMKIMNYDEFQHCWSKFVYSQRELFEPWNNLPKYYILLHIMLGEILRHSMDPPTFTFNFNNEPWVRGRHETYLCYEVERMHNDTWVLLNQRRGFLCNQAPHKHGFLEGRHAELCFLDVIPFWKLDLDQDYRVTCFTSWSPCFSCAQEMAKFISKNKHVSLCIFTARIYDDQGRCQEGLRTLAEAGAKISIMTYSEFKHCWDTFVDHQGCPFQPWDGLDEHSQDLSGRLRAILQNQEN
Sequence of Beta-galactosidase (Q8VNN2 whole entry): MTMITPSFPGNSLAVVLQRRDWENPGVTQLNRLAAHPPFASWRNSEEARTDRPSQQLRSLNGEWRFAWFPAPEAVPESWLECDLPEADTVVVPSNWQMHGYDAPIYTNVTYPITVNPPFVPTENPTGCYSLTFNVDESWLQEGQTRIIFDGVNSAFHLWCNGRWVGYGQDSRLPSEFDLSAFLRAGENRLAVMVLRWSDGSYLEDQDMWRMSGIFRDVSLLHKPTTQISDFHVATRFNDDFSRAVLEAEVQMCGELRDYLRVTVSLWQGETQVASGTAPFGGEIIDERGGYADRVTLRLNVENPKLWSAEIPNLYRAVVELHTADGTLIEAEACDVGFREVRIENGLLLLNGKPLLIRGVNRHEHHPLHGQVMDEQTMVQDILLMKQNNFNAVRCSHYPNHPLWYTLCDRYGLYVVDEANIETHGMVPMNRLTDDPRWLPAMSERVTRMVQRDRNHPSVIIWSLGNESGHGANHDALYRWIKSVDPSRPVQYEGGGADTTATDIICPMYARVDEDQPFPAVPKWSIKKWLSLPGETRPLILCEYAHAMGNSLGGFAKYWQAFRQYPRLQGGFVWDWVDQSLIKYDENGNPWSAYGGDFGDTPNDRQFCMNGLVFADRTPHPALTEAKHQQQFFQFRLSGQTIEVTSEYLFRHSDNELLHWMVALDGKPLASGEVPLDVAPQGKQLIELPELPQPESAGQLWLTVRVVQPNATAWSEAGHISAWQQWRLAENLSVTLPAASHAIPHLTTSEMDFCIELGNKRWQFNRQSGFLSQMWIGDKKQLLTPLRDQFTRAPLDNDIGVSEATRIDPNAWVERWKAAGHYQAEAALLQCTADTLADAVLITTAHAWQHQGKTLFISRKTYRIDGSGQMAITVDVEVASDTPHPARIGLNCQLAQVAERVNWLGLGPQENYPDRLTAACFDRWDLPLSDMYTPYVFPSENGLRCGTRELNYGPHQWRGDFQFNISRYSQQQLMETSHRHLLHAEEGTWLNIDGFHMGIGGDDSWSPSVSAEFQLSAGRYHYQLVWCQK

## O=C(c1cc2ccccc2oc1=O)N1CCOCC1
[1]
  EC50: > 91.2 µM (inactive)
[2]
  EC50: > 91.2 µM (inactive)

## Fc1ccc(-c2ccc(CNCc3ccccn3)o2)cc1Cl
[3]
  IC50: 4.34 µM (active)
[4]
  AC50: 88.6 µM (active)

## CCn1c2ccccc2c2cc(/C=N/O)ccc21
[5]
  IC50: 7.06 µM (active)

## COc1ccccc1CN1CCN(C(=O)c2ccco2)CC1
[6]
  EC50: 1.99 µM (active)
[7]
  EC50: 92.5 µM (inactive)

## Cc1ccc(NC(=O)CNCc2ccccn2)cc1S(=O)(=O)N(C)C
[4]
  AC50: 127 µM (active)

## CC(=O)N1CC[C@@H]2[C@@H](CO)N(C)c3ccc(-c4ccccc4)cc3[C@@H]21
[8]
  AC50: 8.17 µM (active)

## Fc1ccc2[nH]c3c(N4CCSCC4)ncnc3c2c1
[9]
  AC50: 2.76 µM (active)
[10]
  AC50: 1.5 µM (active)
[11]
  AC50: 2.6 µM (active)
[12]
  EC50: 13.4 µM (active)
[13]
  EC50: 13.3 µM (active)
[14]
  AC50: 30 µM (active)

## Cc1cc(C)nc(NNS(=O)(=O)c2c(F)cc(F)cc2Br)n1
[15]
  IC50: 22.7 µM (not active)
[16]
  EC50: > 40 µM (inactive)

## Cc1ccc(-c2cc[nH]c(=S)n2)cc1
[17]
  AC50: 14.1 µM (inconclusive)
[18]
  AC50: 10 µM (inconclusive)
[19]
  EC50: > 104 µM (inactive)
[20]
  AC50: 14.1 µM (inconclusive)

## CCNC(=O)C1(C)CCCN(Cc2ccc(-c3ccccc3)o2)C1 (stereo unspecified)
[5]
  IC50: > 79 µM (inactive)

## OCc1ccccc1SSc1ccccc1CO
[21]
  IC50: 12.3 µM (active)
[19]
  EC50: > 104 µM (inactive)
[22]
  IC50: 11.4 µM (active)
[23]
  IC50: > 80 µM (inactive)
